Test results from US10647713B2 (Nimbus Lakshmi, Inc., priority 2016, dated 2020).

molecular target: human TYK2 (JH2domain-pseudokinase) (Homo sapiens (Human), UniProt P29597); experiment: TYK2 JH2 Domain Binding Assay (KINOMEscan, DiscoveRx); settings: 11-point dilution, duplicate
How it was run: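 TYK2 JH2 (G556–D888)–NFkB DBD fusion, DNA-tagged, from HEK293 extracts (<0.1 nM) competed against immobilised biotinylated ligand for 1 h at room temperature, 0.9% DMSO. Bead-retained kinase quantified by qPCR; Kd from 11-point 3-fold series (top 30,000 nM, duplicate), Hill fit with slope −1.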

Sequence of human TYK2 (JH2domain-pseudokinase) (P29597 556-888): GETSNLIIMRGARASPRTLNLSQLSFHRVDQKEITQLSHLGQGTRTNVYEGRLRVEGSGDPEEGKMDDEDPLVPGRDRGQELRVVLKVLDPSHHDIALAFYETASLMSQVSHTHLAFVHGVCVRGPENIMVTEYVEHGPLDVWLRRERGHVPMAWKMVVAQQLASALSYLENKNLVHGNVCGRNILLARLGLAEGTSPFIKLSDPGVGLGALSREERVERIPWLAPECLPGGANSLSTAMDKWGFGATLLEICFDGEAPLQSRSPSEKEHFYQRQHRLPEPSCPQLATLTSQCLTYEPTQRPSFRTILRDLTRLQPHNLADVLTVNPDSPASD

| Kd [nM] | SMILES |
| --- | --- |
| 1 to 10 | COc1c(Nc2cc(Nc3cc(C(F)(F)F)n(C)n3)nc3[nH]c(C(F)F)nc23)cccc1-c1ncn(C)n1 [I-206, 2-(difluoromethyl)-N7-(2-methoxy-3-(1-methyl-1H-1,2,4-triazol-3-yl)phenyl)-N5-(1-methyl-5-(trifluoromethyl)-1H-pyrazol-3-yl)-3H-imidazo[4,5-b]pyridine-5,7-diamine] |
| 0.1 to 0.5 | Cc1nc2c(Nc3ccc(-c4cn(C)cn4)cc3S(C)(=O)=O)cc(NC(=O)[C@H]3C[C@H]3F)nc2[nH]1 [I-251, (1R,2R)-2-fluoro-N-(2-methyl-7-((4-(1-methyl-1H-imidazol-4-yl)-2-(methylsulfonyl)phenyl)amino)-3H-imidazo[4,5-b]pyridin-5-yl)cyclopropane-1-carboxamide] |
| 0.1 to 0.5 | Cc1cn(C)nc1-c1ccc(Nc2cc(Nc3cnc(C)c(C)n3)nc3[nH]c(C(F)F)nc23)c(S(C)(=O)=O)c1 [I-315, 2-(difluoromethyl)-N7-(4-(1,4-dimethyl-1H-pyrazol-3-yl)-2-(methylsulfonyl)phenyl)-N5-(5,6-dimethylpyrazin-2-yl)-3H-imidazo[4,5-b]pyridine-5,7-diamine] |
| 0.1 to 0.5 | Cc1nc2c(Nc3ccc(C4CCCO4)cc3S(C)(=O)=O)cc(Nc3cccc(C#N)n3)nc2[nH]1 (stereo not drawn) [I-544, 6-((2-methyl-7-((2-(methylsulfonyl)-4-(tetrahydrofuran-2-yl)phenyl)amino)-3H-imidazo[4,5-b]pyridin-5-yl)amino)picolinonitrile] |
| 0.1 to 0.5 | Cc1c(-c2ccc(Nc3cc(NC(=O)C4CC4(F)F)nc4[nH]c(C(F)F)nc34)c(S(C)(=O)=O)c2)cnn1C (stereo not drawn) [I-331, N-(2-(difluoromethyl)-7-((4-(1,5-dimethyl-1H-pyrazol-4-yl)-2-(methylsulfonyl)phenyl)amino)-3H-imidazo[4,5-b]pyridin-5-yl)-2,2-difluorocyclopropane-1-carboxamide] |
| 1 to 10 | CS(=O)(=O)c1cc([C@@H]2CCCOC2)ccc1Nc1cc(NC(=O)C2CC2(F)F)nc2[nH]c(C(F)F)nc12 (stereo partly drawn) [I-359, N-(2-(difluoromethyl)-7-((2-(methylsulfonyl)-4-((S)-tetrahydro-2H-pyran-3-yl)phenyl)amino)-3H-imidazo[4,5-b]pyridin-5-yl)-2,2-difluorocyclopropane-1-carboxamide] |
| 0.5 to 1 | Cc1ccn(-c2ccc(Nc3cc(NC(=O)C4CC4)nc4[nH]c(C(F)F)nc34)c(S(C)(=O)=O)c2)n1 [I-63, N-(2-(difluoromethyl)-7-((4-(3-methyl-1H-pyrazol-1-yl)-2-(methylsulfonyl)phenyl)amino)-3H-imidazo[4,5-b]pyridin-5-yl)cyclopropanecarboxamide] |
| > 10 | CS(=O)(=O)c1cc(C2CCCO2)ccc1Nc1cc(NC(=O)C2CC2)nc2[nH]c(C(F)F)nc12 (stereo not drawn) [I-335, N-(2-(difluoromethyl)-7-((2-(methylsulfonyl)-4-(tetrahydrofuran-2-yl)phenyl)amino)-3H-imidazo[4,5-b]pyridin-5-yl)cyclopropanecarboxamide] |
| < 0.1 | COCCOc1ccc(Nc2cc(Nc3ccc(F)cc3S(C)(=O)=O)c3nc(C)[nH]c3n2)nc1C#N [I-622, 6-((7-((4-fluoro-2-(methylsulfonyl)phenyl)amino)-2-methyl-3H-imidazo[4,5-b]pyridin-5-yl)amino)-3-(2-methoxyethoxy)picolinonitrile] |
| < 0.1 | Cn1cncc1-c1ccc(Nc2cc(NC(=O)C3CC3)nc3[nH]c(C(F)F)nc23)c(S(C)(=O)=O)c1 [I-214, N-(2-(difluoromethyl)-7-((4-(1-methyl-1H-imidazol-5-yl)-2-(methylsulfonyl)phenyl)amino)-3H-imidazo[4,5-b]pyridin-5-yl)cyclopropanecarboxamide] |
| 0.1 to 0.5 | Cn1cnc(-c2ccc(Nc3cc(NC(=O)[C@H]4C[C@H]4F)nc4[nH]c(C(F)F)nc34)c(S(C)(=O)=O)c2)c1 [I-301, (1R,2R)—N-(2-(difluoromethyl)-7-((4-(1-methyl-1H-imidazol-4-yl)-2-(methylsulfonyl)phenyl)amino)-3H-imidazo[4,5-b]pyridin-5-yl)-2-fluorocyclopropane-1-carboxamide] |
| 0.1 to 0.5 | Cc1cn(C)c(-c2ccc(Nc3cc(NC(=O)C4CC4)nc4[nH]c(C)nc34)c(S(C)(=O)=O)c2)n1 [I-461, N-(7-((4-(1,4-dimethyl-1H-imidazol-2-yl)-2-(methylsulfonyl)phenyl)amino)-2-methyl-3H-imidazo[4,5-b]pyridin-5-yl)cyclopropanecarboxamide] |
| 1 to 10 | Cc1ncc(Nc2cc(Nc3ccc(C4CC4)cc3S(C)(=O)=O)c3nc(C(F)F)[nH]c3n2)nc1C [I-417, N7-(4-cyclopropyl-2-(methylsulfonyl)phenyl)-2-(difluoromethyl)-N5-(5,6-dimethylpyrazin-2-yl)-3H-imidazo[4,5-b]pyridine-5,7-diamine] |
| 0.1 to 0.5 | CN(c1cc(-c2cnn(C)c2)ccc1Nc1cc(NC(=O)C2CC2)nc2[nH]c(C(F)F)nc12)S(C)(=O)=O [I-65, N-(2-(difluoromethyl)-7-((4-(1-methyl-1H-pyrazol-4-yl)-2-(N-methylmethylsulfonamido)phenyl)amino)-3H-imidazo[4,5-b]pyridin-5-yl)cyclopropanecarboxamide] |
| < 0.1 | Cc1nc2c(Nc3ccc(-c4cc(C)n(C)n4)cc3S(C)(=O)=O)cc(Nc3cc4n(n3)CCOC4)nc2[nH]1 [I-514, N5-(6,7-dihydro-4H-pyrazolo[5,1-c][1,4]oxazin-2-yl)-N7-(4-(1,5-dimethyl-1H-pyrazol-3-yl)-2-(methylsulfonyl)phenyl)-2-methyl-3H-imidazo[4,5-b]pyridine-5,7-diamine] |
| 0.1 to 0.5 | CN(c1cc(-c2cnn(C)c2)ccc1Nc1cc(NC(=O)[C@H]2C[C@H]2F)nc2[nH]c(C(F)F)nc12)S(C)(=O)=O [I-236, (1R, 2R)—N-(2-(difluoromethyl)-7-((4-(1-methyl-1H-pyrazol-4-yl)-2-(N-methylmethylsulfonamido)phenyl)amino)-3H-imidazo[4,5-b]pyridin-5-yl)-2-fluorocyclopropane-1-carboxamide] |
| 0.1 to 0.5 | Cc1nc(-c2ccc(Nc3cc(Nc4cnc(C)c(C)n4)nc4[nH]c(C(F)F)nc34)c(N(C)S(C)(=O)=O)c2)n(C)n1 [I-166, N-(2-((2-(difluoromethyl)-5-((5,6-dimethylpyrazin-2-yl)amino)-3H-imidazo[4,5-b]pyridin-7-yl)amino)-5-(1,3-dimethyl-1H-1,2,4-triazol-5-yl)phenyl)-N-methyl-methanesulfonamide] |
| 1 to 10 | COc1c(Nc2cc(Nc3cccc(C#N)n3)nc3[nH]c(C)nc23)cccc1-c1nccs1 [I-573, 6-((7-((2-methoxy-3-(thiazol-2-yl)phenyl)amino)-2-methyl-3H-imidazo[4,5-b]pyridin-5-yl)amino)picolinonitrile] |
| 1 to 10 | COc1c(Nc2cc(Nc3cnc(N4CC[C@@H](OC)C4)c(C#N)n3)nc3[nH]c(C(F)F)nc23)cccc1-c1nnn(C)n1 [I-48, (R)-6-((2-(difluoromethyl)-7-((2-methoxy-3-(2-methyl-2H-tetrazol-5-yl)phenyl)amino)-3H-imidazo[4,5-b]pyridin-5-yl)amino)-3-(3-methoxypyrrolidin-1-yl)pyrazine-2-carbonitrile] |
| 0.1 to 0.5 | [2H]C([2H])([2H])S(=O)(=O)N(C)c1ccccc1Nc1cc(Nc2cc(C)nc(C)n2)nc2[nH]c(C)nc12 [I-456, N-(2-((5-((2,6-dimethylpyrimidin-4-yl)amino)-2-methyl-3H-imidazo[4,5-b]pyridin-7-yl)amino)phenyl)-N-methylmethanesulfonamide-d3] |

| SMILES | Kd [nM] |
| --- | --- |
| Cc1nc(-c2ccc(Nc3cc(NC(=O)C4CC4)nc4[nH]c(C(F)F)nc34)c(S(C)(=O)=O)c2)sc1C [I-415, N-(2-(difluoromethyl)-7-((4-(4,5-dimethylthiazol-2-yl)-2-(methylsulfonyl)phenyl)amino)-3H-imidazo[4,5-b]pyridin-5-yl)cyclopropanecarboxamide] | 1 to 10 |
| Cc1nc2c(Nc3ccc([C@@H]4CCC(C)(C)O4)cc3S(C)(=O)=O)cc(NC(=O)C3CC3)nc2[nH]1 [I-592, (S)—N-(7-((4-(5,5-dimethyltetrahydrofuran-2-yl)-2-(methylsulfonyl)phenyl)amino)-2-methyl-3H-imidazo[4,5-b]pyridin-5-yl)cyclopropanecarboxamide] | 0.5 to 1 |
| CS(=O)(=O)c1cc(C2COCCO2)ccc1Nc1cc(NC(=O)C2CC2)nc2[nH]c(C(F)F)nc12 (stereo not drawn) [I-588, N-(7-((4-(1,4-dioxan-2-yl)-2-(methylsulfonyl)phenyl)amino)-2-(difluoromethyl)-3H-imidazo[4,5-b]pyridin-5-yl)cyclopropanecarboxamide] | 0.1 to 0.5 |
| COc1c(Nc2cc(NC(=O)C3CC3)nc3[nH]c(C)nc23)ccc(-c2nn(C)cc2C)c1F [I-557, N-(7-((4-(1,4-dimethyl-1H-pyrazol-3-yl)-3-fluoro-2-methoxyphenyl)amino)-2-methyl-3H-imidazo[4,5-b]pyridin-5-yl)cyclopropanecarboxamide] | > 10 |
| COc1cc(-c2nc(C)c(C)s2)ccc1Nc1cc(NC(=O)C2CC2)nc2[nH]c(C(F)F)nc12 [I-582, N-(2-(difluoromethyl)-7-((4-(4,5-dimethylthiazol-2-yl)-2-methoxyphenyl)amino)-3H-imidazo[4,5-b]pyridin-5-yl)cyclopropanecarboxamide] | > 10 |
| Cc1nc2c(Nc3ccc(-c4ncc(C)s4)cc3S(C)(=O)=O)cc(Nc3cc4n(n3)CCOC4)nc2[nH]1 [I-496, N5-(6,7-dihydro-4H-pyrazolo[5,1-c][1,4]oxazin-2-yl)-2-methyl-N7-(2-(methylsulfonyl)-4-(5-methylthiazol-2-yl)phenyl)-3H-imidazo[4,5-b]pyridine-5,7-diamine] | 0.1 to 0.5 |
| COCc1nc(-c2ccc(Nc3cc(NC(=O)C4CC4)nc4[nH]c(C)nc34)c(S(C)(=O)=O)c2)sc1C [I-512, N-(7-((4-(4-(methoxymethyl)-5-methylthiazol-2-yl)-2-(methylsulfonyl)phenyl)amino)-2-methyl-3H-imidazo[4,5-b]pyridin-5-yl)cyclopropanecarboxamide] | < 0.1 |
